# Results: patent US5591741A, “Fungicidal spiroheterocyclic derivatives” (American Cyanamid Company, priority 1993, dated 1997)
# How the values were obtained:
# Plasmopara viticola = assay: Antisporulant activity against vine downy mildew (PVA); assay type: in vivo; conditions: vine leaves, antisporulant foliar spray, 600 ppm, 750 l/ha
# Experimental: (a) Antisporulant activity against vine downy mildew (Plasmopara viticola; PVA) The test is a direct antisporulant one using a foliar spray. The lower surfaces of leaves of whole vine plants (cv Cabernet Sauvignon), approximately 8 cm high, are inoculated by spraying with an aqueous suspension containing 5×10^4 zoosporangia/ml. The inoculated plants are kept for 24 hours at 21° C. in a high humidity compartment, then 24 hours at glasshouse ambient temperature and humidity. Infected leaves are sprayed on their lower surfaces with a solution of active material in 1:1 water/acetone containing 0.04% "TWEEN 20" (Trade Mark; a polyoxyethylene sorbitan ester surfactant). Plants are treated using an automated sprayline with an atomising nozzle. The concentration of the compound is 600 ppm, and the spray volume is 750 l/ha. After spraying, the plants are returned to normal glasshouse conditions for 96 hours and are then transferred to the high humidity compartment for 24 hours to induce sporulation. Assessment is based on the percentage of the leaf area covered by sporulation compared with that on control leaves. The extent of disease control in all the above tests is expressed as a rating compared with either an untreated control or a diluent-sprayed-control, according to the criteria: […]
# Alternaria solani = assay: Activity against tomato early blight (AS); assay type: in vivo; conditions: Table VI; tomato seedlings, contact prophylactic foliar spray, 4 days
# Experimental: b) Activity against tomato early blight (Alternaria solani; AS) This test measures the contact prophylactic activity of test compounds applied as a foliar spray. Tomato seedlings (cv Outdoor Girl) are grown to the stage at which the second true leaf is expanded. The plants are treated using an automated sprayline as described under (a). Test compounds are applied as solutions or suspensions in a mixture of acetone and water (50:50 v/v) containing 0.04% surfactant ("TWEEN 20"--Trade Mark). After drying the plants are kept for 24 hours in a glasshouse at 20° C. and 40% R.H., followed by inoculation of the leaf upper surfaces with a suspension of A. solani conidia containing 10^4 spores/ml. For 4 days after inoculation plants are kept moist in a humidity compartment at 21° C. Disease is assessed 4 days after inoculation, based on the percentage of leaf surface area covered by lesions when compared with control plants. The extent of disease control in all the above tests is expressed as a rating compared with either an untreated control or a diluent-sprayed-control, according to the criteria: […]
# Botrytis cinerea = assay: Direct protectant activity against broad bean grey mould (BCB); assay type: in vivo; conditions: direct protectant foliar spray, 600 ppm, 4 days
# Experimental: (c) Direct protectant activity against broad bean grey mould (Botrytis cinerea; BCB) The test is a direct protectant foliar spray. The upper surfaces of leaves of broad bean plants with two leaf pairs (cv The Sutton) are sprayed with the test compound at a dosage of 600 ppm using an automated sprayline as described under (a). 24 hours after spraying the leaves are inoculated with an aqueous suspension containing 10^6 conidia/ml. For 4 days after inoculation plants are kept in a high humidity compartment at 22° C. Disease is assessed 4 days after inoculation, based on the percentage of leaf surface area covered by lesions. The extent of disease control in all the above tests is expressed as a rating compared with either an untreated control or a diluent-sprayed-control, according to the criteria: […]
# Leptosphaeria nodorum = assay: Activity against wheat leafspot (LN); assay type: in vivo; conditions: direct therapeutic foliar spray, 600 ppm, 6-8 days
# Experimental: (d) Activity against wheat leafspot (Leptosphaeria nodorum; LN.) The test is a direct therapeutic foliar spray. Leaves of wheat plants (cv Norman), at the single leaf stage, are inoculated by spraying with an aqueous suspension containing 1.5×10^6 conidia/ml. The inoculated plants are kept for 24 hours in a high humidity compartment prior to treatment. The plants are sprayed with a solution of the test compound at a dosage of 600 ppm using an automated sprayline as described under (a). After drying, the plants are kept for 6-8 days at 22° C. and moderate humidity (70%). Assessment is based on the density of lesions per leaf compared with that on leaves of control plants. The extent of disease control in all the above tests is expressed as a rating compared with either an untreated control or a diluent-sprayed-control, according to the criteria: […]
# [1] = tested on: Erysiphe graminis f.sp. hordei; assay: Activity against barley powdery mildew, direct therapeutic (EGT); assay type: in vivo; conditions: direct therapeutic foliar spray, 600 ppm, up to 7 days
# Experimental: (e) Activity against barley powdery mildew (Erysiphe graminis f.sp. hordei; EGT) The test is a direct therapeutic foliar spray. Leaves of barley seedlings, (cv. Golden Promise) at the single leaf stage are inoculated by dusting with mildew conidia one day prior to treatment with the test compound. The inoculated plants are kept overnight at glasshouse ambient temperature (18° C.) and humidity (40%) prior to treatment. The plants are sprayed with the test compound at a dosage of 600 ppm using an automated sprayline as described under (a). After drying, plants are returned to a compartment at 18° C. and 40% humidity for up to 7 days. Assessment is based on the percentage of leaf area covered by sporulation compared with that on leaves of control plants. The extent of disease control in all the above tests is expressed as a rating compared with either an untreated control or a diluent-sprayed-control, according to the criteria: […]
# [2] = tested on: Erysiphe graminis f.sp. hordei; assay: Direct protectant activity against barley powdery mildew (EGP); assay type: in vivo; conditions: direct protectant foliar spray, 8 days
# Experimental: (f) Direct protectant activity against barley powdery mildew (Erysiphe graminis f.sp. hordei; EGP) The test is a direct protectant foliar spray. Leaves of barley seedlings (cv Golden Promise) at the single leaf stage are sprayed with the test compound as described under (a). After drying, the plants are kept for 24 hours in a glasshouse at 18° C. and 40% R.H. Then the plants are inoculated by dusting with mildew conidia and kept at 18° C. and 40% R.H. for 8 days. Assessment is based on the percentage of leaf area covered by sporulation compared with that on leaves of control plants. The extent of disease control in all the above tests is expressed as a rating compared with either an untreated control or a diluent-sprayed-control, according to the criteria: […]
# Phytophthora infestans = assay type: in vivo; conditions: tomato, direct protectant foliar spray
# [3] = tested on: Pseudocercosporella herpotrichoides; assay: Activity against wheat eyespot in-vitro (PHI); assay type: cell-based; conditions: 10 ppm, 10 days, 20° C., mycelial growth
# Experimental: (h) Activity against wheat eyespot in-vitro (Pseudocercosporella herpotrichoides; pHI) This test measures the in vitro activity of compounds against the fungus causing wheat eyespot. The test compound is dissolved or suspended in acetone and is added into 4 ml aliquots of half strength Potato Dextrose Broth (PDB) dispended in 25-compartment petri dishes to give a final concentration of 10ppm. The fungal inoculum consists of mycelial fragments of P. herpotrichoides grown in half strength PDB in shaken flasks and added to the broth to provide 5×10^4 fragments/ml broth. Petri dishes are incubated at 20° C. for 10 days until the assessment of mycelial growth. The extent of disease control in all the above tests is expressed as a rating compared with either an untreated control or a diluent-sprayed-control, according to the criteria: […]
# Rhizoctonia solani = assay: Activity against Rhizoctonia in-vitro (RSI); assay type: cell-based; conditions: 10 ppm, 10 days, 20° C., mycelial growth
# Experimental: (i) Activity against Rhizoctonia in-vitro (Rhizoctonia solani: RSI) This test measures the in-vitro activity of compounds against R. solani that causes stem and root rots. The test compound in acetone is added into 4 ml aliquots of half strength Potato Dextrose Broth dispensed in 25-compartment petri dishes to give final concentrations of 10 ppm. The fungal inoculum consists of mycelial fragments of R. solani growth in half strength PDB in shaken culture flasks and added to the broth to provide 5×10^4 fragments/ml broth. Petri dishes are incubated at 20° C. for 10 days until the assessment of mycelial growth. The extent of disease control in all the above tests is expressed as a rating compared with either an untreated control or a diluent-sprayed-control, according to the criteria: […]
# Venturia inaequalis = assay: Activity against apple scab in-vitro (VII); assay type: cell-based; conditions: 10 ppm, 10 days, 20° C., mycelial growth
# Experimental: (j) Activity against apple scab in-vitro (Venturia inaequalis: VII) This test measures the in-vitro activity of compounds against V. inaequalis that causes apple scab. The test compound in acetone is added into 4 ml aliquots of half strength Potato Dextrose Broth dispensed in 25-compartment petri dishes to give final concentrations of 10 ppm. The fungal inoculum consists of mycelial fragments and spores of V. inaequalis grown on malt agar and added to the broth to provide 5×10^4 propagules/ml broth. Petri dishes are incubated at 20° C. for 10 days until the assessment of mycelial growth. The extent of disease control in all the above tests is expressed as a rating compared with either an untreated control or a diluent-sprayed-control, according to the criteria: […]
# Pyricularia oryzae = assay type: in vivo; conditions: rice seedlings, direct therapeutic foliar spray, 600 ppm, 4-5 days
smiles,measurement,setting,value
"CC(C)(C)C1CCC2(CC1)CC(O)(CNC1CCCCC1)CO2 (single isomer, unassigned) [Compound 213, 8-t-Butyl-3-cyclohexylaminomethyl-3-hydroxy-1-oxaspiro-(4,5)decane]",disease control rating PVA,Plasmopara viticola,0 (less than 50% disease control)
same,disease control rating AS,Alternaria solani,2 (greater than 80% disease control)
same,disease control rating BCB,Botrytis cinerea,2 (greater than 80% disease control)
same,disease control rating LN,Leptosphaeria nodorum,0 (less than 50% disease control)
same,disease control rating EGT,[1],2 (greater than 80% disease control)
same,disease control rating EGP,[2],2 (greater than 80% disease control)
same,disease control rating PIP,Phytophthora infestans,2 (greater than 80% disease control)
same,disease control rating PHI,[3],0 (less than 50% disease control)
same,disease control rating RSI,Rhizoctonia solani,0 (less than 50% disease control)
same,disease control rating VII,Venturia inaequalis,0 (less than 50% disease control)
same,disease control rating PO,Pyricularia oryzae,1 (about 50-80% disease control)
CC(C)(C)C1CCC2(CC1)CC(NCc1ccc(Cl)cc1)CO2 (stereo not shown) [Compound 1],disease control rating PVA,Plasmopara viticola,0 (less than 50% disease control)
same,disease control rating AS,Alternaria solani,0 (less than 50% disease control)
same,disease control rating BCB,Botrytis cinerea,0 (less than 50% disease control)
same,disease control rating LN,Leptosphaeria nodorum,0 (less than 50% disease control)
same,disease control rating EGT,[1],2 (greater than 80% disease control)
same,disease control rating PIP,Phytophthora infestans,0 (less than 50% disease control)
same,disease control rating PHI,[3],1 (about 50-80% disease control)
same,disease control rating RSI,Rhizoctonia solani,0 (less than 50% disease control)
same,disease control rating VII,Venturia inaequalis,0 (less than 50% disease control)
same,disease control rating PO,Pyricularia oryzae,0 (less than 50% disease control)
CCCCCCNC1COC2(CCC(C(C)(C)C)CC2)C1 (stereo not shown) [Compound 2],disease control rating PVA,Plasmopara viticola,0 (less than 50% disease control)
same,disease control rating AS,Alternaria solani,0 (less than 50% disease control)
same,disease control rating BCB,Botrytis cinerea,0 (less than 50% disease control)
same,disease control rating LN,Leptosphaeria nodorum,0 (less than 50% disease control)
same,disease control rating EGT,[1],2 (greater than 80% disease control)
same,disease control rating PIP,Phytophthora infestans,0 (less than 50% disease control)
same,disease control rating PHI,[3],1 (about 50-80% disease control)
same,disease control rating RSI,Rhizoctonia solani,1 (about 50-80% disease control)
same,disease control rating VII,Venturia inaequalis,0 (less than 50% disease control)
same,disease control rating PO,Pyricularia oryzae,0 (less than 50% disease control)
CC1CN(C2COC3(CCC(C(C)(C)C)CC3)C2)CC(C)O1 (stereo not shown) [Compound 3],disease control rating PVA,Plasmopara viticola,0 (less than 50% disease control)
same,disease control rating AS,Alternaria solani,0 (less than 50% disease control)
same,disease control rating BCB,Botrytis cinerea,0 (less than 50% disease control)
same,disease control rating LN,Leptosphaeria nodorum,0 (less than 50% disease control)
same,disease control rating EGT,[1],1 (about 50-80% disease control)
same,disease control rating PIP,Phytophthora infestans,0 (less than 50% disease control)
same,disease control rating PHI,[3],2 (greater than 80% disease control)
same,disease control rating RSI,Rhizoctonia solani,0 (less than 50% disease control)
same,disease control rating VII,Venturia inaequalis,2 (greater than 80% disease control)
same,disease control rating PO,Pyricularia oryzae,0 (less than 50% disease control)
CC1CCN(C2COC3(CCC(C(C)(C)CC(C)(C)C)CC3)C2)CC1 (stereo not shown) [Compound 135],disease control rating PVA,Plasmopara viticola,0 (less than 50% disease control)
same,disease control rating AS,Alternaria solani,0 (less than 50% disease control)
same,disease control rating BCB,Botrytis cinerea,0 (less than 50% disease control)
same,disease control rating LN,Leptosphaeria nodorum,1 (about 50-80% disease control)
same,disease control rating EGT,[1],2 (greater than 80% disease control)
same,disease control rating EGP,[2],2 (greater than 80% disease control)
same,disease control rating PHI,[3],2 (greater than 80% disease control)
same,disease control rating RSI,Rhizoctonia solani,2 (greater than 80% disease control)
same,disease control rating VII,Venturia inaequalis,1 (about 50-80% disease control)
same,disease control rating PO,Pyricularia oryzae,0 (less than 50% disease control)
CC1CC(C)CN(C2COC3(CCC(C(C)(C)CC(C)(C)C)CC3)C2)C1 (stereo not shown) [Compound 136],disease control rating PVA,Plasmopara viticola,0 (less than 50% disease control)
same,disease control rating AS,Alternaria solani,0 (less than 50% disease control)
same,disease control rating BCB,Botrytis cinerea,0 (less than 50% disease control)
same,disease control rating LN,Leptosphaeria nodorum,0 (less than 50% disease control)
same,disease control rating EGT,[1],2 (greater than 80% disease control)
same,disease control rating EGP,[2],2 (greater than 80% disease control)
same,disease control rating PHI,[3],2 (greater than 80% disease control)
same,disease control rating RSI,Rhizoctonia solani,2 (greater than 80% disease control)
same,disease control rating VII,Venturia inaequalis,0 (less than 50% disease control)
same,disease control rating PO,Pyricularia oryzae,0 (less than 50% disease control)
